These results are taken from patent US11013235B2 (priority 2015, dated 2021).

Like-named read-outs stand apart in the source and are kept apart here.

Common to all, as to assay type: in vivo
The test system of experiment [1] is Alternaria solani. Kind of experiment: Control of Alternaria solani disease in tomato (As-SI). The note with it: 1 μM spraying every 24 hours for one week, water control 68. In outline:
(§1)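 Fifty pre-inoculated plants per treatment received 1 μM compound sprays daily for a week; water-sprayed plants served as controls. Disease scored as plant mortality (Nocardia), share of leaves with symptoms (A. solani) or lesion diameter (B. cinerea).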

Experiment [2] deals with Botrytis cinerea. Kind of experiment: Control of Botrytis cinerea disease in tobacco (Bc-Nt). The note with it: 1 μM spraying every 24 hours for one week, water control 6.7. In outline:
as §1

Experiment [3] has as its system Radopholus similis. Description: Nematode control, nodules per plant: Radopholus similis. The following applies: 1 μM foliar application every 5 days, evaluation 35 days after, control 45. In a few lines:
(§2)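 Read-out: nodule count per plant at final evaluation 35 days after start. Foliar spray of 1 μM compound (ethanol stock diluted in water) repeated every 5 days, ten plants per treatment.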

Experiment [4] deals with Meloidogyne incognita. Description: Nematode control, nodules per plant: Meloidogyne incognita. The note with it: 1 μM foliar application every 5 days, evaluation 35 days after, control 34. In a few lines:
as §2

Experiment [5] concerns Pratylenchus coffeae. Description: Nematode control, nodules per plant: Pratylenchus coffeae. The note with it: 1 μM foliar application every 5 days, evaluation 35 days after, control 42. In a few lines:
as §2

Experiment [6] concerns Nocardia sp. Kind of experiment: Control of Nocardia sp disease in tobacco (N-Nt). The following applies: 1 μM spraying every 24 hours for one week, water control 58. In a few lines:
as §1

The subject of experiment [7] is Candidatus 'Liberibacter asiaticus'. The following applies: spraying every 15 days, 12 months after treatment, Citrus sinensis with HLB.
The subject of experiment [8] is Rhizoctonia solani. Description: Control of Rhizoctonia solani disease in tomato (Rs-SI). The note with it: 1 μM spraying every 24 hours for one week, water control 96.
Experiment [9] relates to Botrytis cinerea. Description: Control of Botrytis cinerea disease in tomato (Bc-SI). The note with it: 1 μM spraying every 24 hours for one week, water control 7.4. In a few lines:
as §1

In experiment [10] the test system is Botrytis cinerea. Description: Control of Botrytis cinerea disease in Arabidopsis (Bc-At). The note with it: 1 μM spraying every 24 hours for one week, water control 8.7. In outline:
as §1

Experiment [11] relates to Rhizoctonia solani. Description: Control of Rhizoctonia solani disease in tobacco (Rs-Nt). The note with it: 1 μM spraying every 24 hours for one week, water control 87.
In experiment [12] the test system is Phytophthora parasitica. Description: Control of Phytophthora parasitica disease in tobacco (Pp-Nt). The following applies: 1 μM spraying every 24 hours for one week, water control 91.

For the compound `CC(O)C(O)CN1CCC(Oc2ccc(C(=O)N3CCCC3)cc2)CC1` (stereo not shown) [IVJ, 1-(4-{4-[(pyrrolidin-1-yl)carbonyl]phenoxy}piperidin-1-yl)butane-2,3-diol], the “As-SI: percentage of leaves with the disease symptoms” value (shortened to “As-SI: percentage of leaves”) in experiment [1] was 1%. In addition, the “Bc-Nt: mean of the diameter of the lesion” value (“Bc-Nt: mean” for short) in experiment [2] was 2.0 mm. In experiment [3], the “Rs: number of nodules per plant” value is given as 16. Besides, in experiment [4], the “Mi: number of nodules per plant” value was 2. The “Pc: number of nodules per plant” value in [5] is reported as 18. In addition, the “N-Nt: percentage of mortality” value in experiment [6] turned out to be 1%. Further, the “Titers of the bacterium” value came out at 435 copies per reaction in [7] (0.001 μM); 7 copies per reaction in experiment [7] (0.01 μM); 3 copies per reaction in experiment [7] (1 μM); 45 copies per reaction in [7] (5 μM); 9547 copies per reaction in [7] (10 μM). Further, the “Rs-SI: percentage of mortality” value in [8] was 3%. The “Bc-SI: mean of the diameter of the lesion” value (“Bc-SI: mean” below) in experiment [9] was 1.6 mm. Also, in experiment [10], the “Bc-At: mean of the diameter of the lesion” value (shortened to “Bc-At: mean”) worked out at 1.1 mm. The “Rs-Nt: percentage of mortality” value in experiment [11] was 2%. Moreover, the “Pp-Nt: percentage of mortality” value in experiment [12] is on record as 1%.
As to `O=C(c1ccc(OC2CCN(CC(O)CO)CC2)cc1)N1CCC(n2cccc2)C1` (stereo not shown) [IVK, 3-[4-(4-{[3-(1H-pyrrol-1-yl)pyrrolidin-1-yl]carbonyl}phenoxy)piperidin-1-yl]propane-1,2-diol], in experiment [1], the “As-SI: percentage of leaves” value is listed as 1%. Moreover, the “Bc-Nt: mean” value in experiment [2] turned out to be 0.9 mm. The “Rs: number of nodules per plant” value in [3] was found to be 14. Also, in experiment [4], the “Mi: number of nodules per plant” value is 2. For the same compound, in experiment [5], the “Pc: number of nodules per plant” value stood at 14. Further, the “N-Nt: percentage of mortality” value in [6] turned out to be 1%. Further, the “Titers of the bacterium” value amounted to 578 copies per reaction in experiment [7] (0.001 μM); 5 copies per reaction in experiment [7] (0.01 μM); 4 copies per reaction in experiment [7] (1 μM); 78 copies per reaction in experiment [7] (5 μM); 8542 copies per reaction in experiment [7] (10 μM). In addition, the “Rs-SI: percentage of mortality” value in experiment [8] is reported as 3%. Moreover, in experiment [9], the “Bc-SI: mean” value is recorded as 0.8 mm. Besides, in [10], the “Bc-At: mean” value stood at 0.5 mm. In addition, in [11], the “Rs-Nt: percentage of mortality” value came out at 2%. The “Pp-Nt: percentage of mortality” value in experiment [12] is 1%.
With `CC(O)C(O)CN1CCC(Oc2ccc(C(=O)N3CCC(n4cccc4)C3)cc2)CC1` (stereo not shown) [IVL, 1-[4-(4-{[3-(1H-pyrrol-1-yl)pyrrolidin-1-yl]carbonyl}phenoxy)piperidin-1-yl]butane-2,3-diol], the “As-SI: percentage of leaves” value in [1] is listed as 2%. In experiment [2], the “Bc-Nt: mean” value is 1.5 mm. Besides, the “Rs: number of nodules per plant” value in [3] came to 2. The “Mi: number of nodules per plant” value in experiment [4] came out at 3. Moreover, the “Pc: number of nodules per plant” value in [5] was determined as 12. Moreover, the “N-Nt: percentage of mortality” value in experiment [6] is given as 1%. Besides, the “Titers of the bacterium” value in experiment [7] (0.001 μM) is 635 copies per reaction; in [7] (0.01 μM) it was 1 copies per reaction; in [7] (1 μM), 7 copies per reaction; in experiment [7] (5 μM), 65 copies per reaction; in experiment [7] (10 μM) it was 9853 copies per reaction. Besides, the “Rs-SI: percentage of mortality” value in experiment [8] was determined as 2%. In addition, in experiment [9], the “Bc-SI: mean” value is given as 2.5 mm. Further, the “Bc-At: mean” value in [10] was determined as 1.5 mm. In addition, the “Rs-Nt: percentage of mortality” value in experiment [11] amounted to 3%. The “Pp-Nt: percentage of mortality” value in [12] came to 2%.
Consider `CNC(=O)c1ccc2c(c1)NC(CC(=O)NC(CO)CO)CO2` (stereo not shown) [VA, 3-{[(1,3-dihydroxypropan-2-yl)carbamoyl]methyl}-N-methyl-3,4-dihydro-2H-1,4-benzoxazine-6-carboxamide], for which the “As-SI: percentage of leaves” value in experiment [1] turned out to be 3%. The “Bc-Nt: mean” value in [2] turned out to be 1.5 mm. Further, the “Rs: number of nodules per plant” value in experiment [3] turned out to be 1. Besides, the “Mi: number of nodules per plant” value in [4] is on record as 4. The “Pc: number of nodules per plant” value in experiment [5] amounted to 2. For the same compound, the “N-Nt: percentage of mortality” value in experiment [6] came out at 2%. Further, the “Titers of the bacterium” value amounted to 524 copies per reaction in [7] (0.001 μM); 1 copies per reaction in [7] (0.01 μM); 5 copies per reaction in experiment [7] (1 μM); 54 copies per reaction in experiment [7] (5 μM); 5478 copies per reaction in experiment [7] (10 μM). Also, the “Rs-SI: percentage of mortality” value in experiment [8] is 2%. Also, the “Bc-SI: mean” value in [9] is listed as 0.8 mm. For the same compound, the “Bc-At: mean” value in [10] came out at 2.4 mm. For the same compound, in experiment [11], the “Rs-Nt: percentage of mortality” value is 4%. The “Pp-Nt: percentage of mortality” value in [12] stood at 1%.
For the compound `CNC(=O)c1ccc2c(c1)N(C)C(CC(=O)NC(CO)CO)CO2` (stereo not shown) [VB, 3-{[(1,3-dihydroxypropan-2-yl)carbamoyl]methyl}-N,4-dimethyl-3,4-dihydro-2H-1,4-benzoxazine-6-carboxamide], the “As-SI: percentage of leaves” value in experiment [1] is recorded as 8%. Further, the “Bc-Nt: mean” value in experiment [2] is 0.9 mm. In addition, the “Rs: number of nodules per plant” value in [3] worked out at 0. Also, the “Mi: number of nodules per plant” value in [4] is listed as 0. The “Pc: number of nodules per plant” value in [5] was determined as 1. In addition, in experiment [6], the “N-Nt: percentage of mortality” value was 1%. Besides, the “Titers of the bacterium” value was 598 copies per reaction in experiment [7] (0.001 μM); 9 copies per reaction in experiment [7] (0.01 μM); 2 copies per reaction in experiment [7] (1 μM); 98 copies per reaction in experiment [7] (5 μM); 9854 copies per reaction in experiment [7] (10 μM). Further, the “Rs-SI: percentage of mortality” value in [8] amounted to 2%. Moreover, the “Bc-SI: mean” value in [9] is 1.2 mm. Besides, the “Bc-At: mean” value in experiment [10] is recorded as 0.7 mm. For the same compound, in experiment [11], the “Rs-Nt: percentage of mortality” value was 0%. For the same compound, the “Pp-Nt: percentage of mortality” value in experiment [12] came out at 0%.
As for `O=C(CC1COc2ccc(C(=O)Nc3ccccc3)cc2N1)NC(CO)CO` (stereo not shown) [VC, 3-{[(1,3-dihydroxypropan-2-yl)carbamoyl]methyl}-N-phenyl-3,4-dihydro-2H-1,4-benzoxazine-6-carboxamide], in experiment [1], the “As-SI: percentage of leaves” value was found to be 7%. Further, the “Bc-Nt: mean” value in [2] stood at 0.3 mm. Moreover, the “Rs: number of nodules per plant” value in experiment [3] was determined as 0. In addition, the “Mi: number of nodules per plant” value in [4] turned out to be 0. Besides, the “Pc: number of nodules per plant” value in [5] stood at 0. In addition, the “N-Nt: percentage of mortality” value in [6] was determined as 0%. Moreover, the “Titers of the bacterium” value in experiment [7] (0.001 μM) came out at 432 copies per reaction; in [7] (0.01 μM), 0 copies per reaction; in experiment [7] (1 μM), 4 copies per reaction; in experiment [7] (5 μM) it was 43 copies per reaction; in experiment [7] (10 μM) it was 6524 copies per reaction. For the same compound, in experiment [8], the “Rs-SI: percentage of mortality” value is reported as 0%. The “Bc-SI: mean” value in experiment [9] was 0.8 mm. For the same compound, in experiment [10], the “Bc-At: mean” value is reported as 1.2 mm. For the same compound, the “Rs-Nt: percentage of mortality” value in experiment [11] was 0%. The “Pp-Nt: percentage of mortality” value in experiment [12] is listed as 0%.
For the compound `O=C(CC1COc2ccc(C(=O)NC3CCCCC3)cc2N1)NC(CO)CO` (stereo not shown) [VE, N-cyclohexyl-3-{[(1,3-dihydroxypropan-2-yl)carbamoyl]methyl}-3,4-dihydro-2H-1,4-benzoxazine-6-carboxamide], the “As-SI: percentage of leaves” value in experiment [1] is listed as 7%. Further, the “Bc-Nt: mean” value in [2] is reported as 0.9 mm. The “Rs: number of nodules per plant” value in experiment [3] was found to be 3. The “Mi: number of nodules per plant” value in [4] was determined as 0. Also, in experiment [5], the “Pc: number of nodules per plant” value is 0. The “N-Nt: percentage of mortality” value in experiment [6] turned out to be 0%. For the same compound, the “Titers of the bacterium” value stood at 587 copies per reaction in experiment [7] (0.001 μM); 0 copies per reaction in experiment [7] (0.01 μM); 0 copies per reaction in experiment [7] (1 μM); 87 copies per reaction in [7] (5 μM); 4587 copies per reaction in experiment [7] (10 μM). The “Rs-SI: percentage of mortality” value in experiment [8] came out at 1%. In [9], the “Bc-SI: mean” value was determined as 0.8 mm. Also, the “Bc-At: mean” value in [10] came out at 0.5 mm. Besides, the “Rs-Nt: percentage of mortality” value in experiment [11] is 0%. The “Pp-Nt: percentage of mortality” value in [12] is 3%.
